These results are taken from patent publication US20090143419A1, “METHODS AND COMPOSITIONS FOR CONTROLLING ECTOPARASITES” (HATCHTECH PTY LTD, priority 2005, published 2009).

Experiment [1] has as its system lice eggs. Nature of the experiment: Time-course in vitro lice egg hatching assay. It counts as in vivo, clothing lice (Pediculus humanus humanus). To be noted: for effect on egg hatching: results not shown.
Experiment [2] has as its system Plutella xylostella eggs (Waite strain). The experiment is described as follows: Egg hatching of Plutella xylostella.
Procedure: The egg masses were then placed in a humid box at 25 degrees until egg hatch. Control eggs were exposed to absolute methanol as described above. At day 6 post laying the eggs were assessed from the different treatments and the percentage of egg hatch determined relative to the control as shown in Table 9.
Batches of Plutella eggs that were laid on either fine cloth or parafilm were dipped in a specific inhibitor solution for between 2-10 seconds, the excess solution was drained by blotting with dry tissue paper. The egg masses were then placed in a humid box at 25 degrees until egg hatch. Control eggs were exposed to absolute methanol as described above or not treated. At day 6 post laying the eggs were assessed from the different treatments and the percentage of egg hatch determined relative to the controls as shown in Tables 10 and 11.
Batches of Plutella eggs that were laid on fine cloth were dipped in a specific inhibitor solution for approximately 2 seconds, the excess solution was drained by blotting with dry tissue paper. The egg masses were then placed in a humid box at 25 degrees until egg hatch. Control eggs were exposed to absolute methanol as described above or not treated. At day 6 post laying the eggs were assessed from the different treatments and the percentage of egg hatch determined relative to the control as shown in Table 12.
The egg masses were then placed in a humid box at 25 degrees until egg hatch. Control eggs were exposed to absolute ethanol as described above. On day 6 post laying the eggs were assessed from the different treatments and the percentage of egg hatch determined relative to the control.
The test system of experiment [3] is Helicoverpa armigera eggs (Tatura×Toowoomba strains). Nature of the experiment: Egg hatching of Helicoverpa armigera. The conditions noted are these: Table 15.
Procedure: Several hundred Helicoverpa armigera eggs (Tatura×Toowoomba strains) were collected, that had been laid on fine mesh cloth over a 24 hour period.
Batches of Helicoverpa eggs were exposed to a specific inhibitor solution for between 2-10 seconds the excess solution drained by blotting with dry tissue paper. The egg masses were then placed in a humid box at 25 degrees until egg hatch. Control eggs were exposed to absolute methanol as described above.
Experiment [4] relates to lice hatching proteases in the egg shell washings (ESW). Nature of the experiment: Gelatine substrate SDS-PAGE of egg shell washings treated with protease inhibitors. It counts as biochemical, Pediculus humanus humanus. The conditions noted are these: 3 hrs at 37° C. Here is the method: Within 12 hours of hatching 50 body lice eggs (Pediculus humanus humanus) were removed from the hair and placed in a 1 ml eppendorf tube. 20 μL of distilled water was added to the unhatched eggs and the preparation incubated for 30 minutes at 32° C. The 20 μL was recovered, freeze dried and stored at −70° C. A number of other samples were also collected as described. Hair samples from which unhatched lice eggs had been removed were also collected and incubated as described above. In addition, a sample of unhatched eggs and a sample of hair from which lice eggs had been removed were collected 7 days post laying (within 24 hrs of egg hatching). Both samples were washed in 10 mls of a 1% solution of sodium hypochlorite for 1 minute followed by a 5×1 minute washes in 25 mls in distilled water to remove the hypochlorite. These samples were then incubated in 20 μL of distilled water as described above. In addition, a group of 25 lice eggs that were within 24 hours of hatching, were pretreated with 1% sodium hypochlorite, washed as described above and left to hatch. Within 1-2 hours after hatching the empty egg shells were incubated in 20 μL of distilled water as described above, the washings collected from the hatched egg shells and stored at −70° C. All of the extract samples were then freeze-dried overnight. The freeze-dried samples were then resuspended in 15 μL of non-reducing SDS sample buffer, centrifuged at 10,000 g for 2 minutes and the entire 15 μL loaded on to 10% gelatine substrate SD S-PAGE gels. Gels were run at 4° C. for 10 minutes at 10 mA followed by a further 25 minutes at 15 mA per gel. They were then incubated for 2×20 minutes in a 2.5% Triton-X 100 solution followed by a three hour incubation in 0.1M Tris/HCl containing 1 mM CaCl2 pH 8.0. Activity was detected as clear areas on the gel the result of protease activity degrading the gelatine within the gel.
10% SDS-PAGE gelatine substrate gels were loaded with freeze dried egg shell washings from 100 lice eggs that had been resuspended in 50 μl of non-reducing sample buffer with samples run at 10 μl per lane. Gels were run at 4° C. for 10 minutes at 10 mA per gel followed by a further 25 minutes at 15 mA per gel. Gels were then cut into strips and each strip incubated for 2×20 minutes in a 2.5% Triton-X 100 solution containing a specific inhibitor. The inhibitors used were the serine protease inhibitor PMSF (5 mM), the metalloprotease inhibitor 1,10-phenanthroline (10 mM), the aspartic protease Pepstatin (5 μM) and the cysteine inhibitor E-64 (10 μM). The gel strips were then incubated in 0.1M Tris/HCl containing 1 mM CaCl2 pH 8 containing the different protease inhibitors for 3 hrs at 37° C., before being stained in Coomassie blue and destained as previously described.

Experiment [5] deals with lice eggs. Nature of the experiment: Lice egg-hatch bioassay, eggs treated five days post laying. It counts as in vivo, clothing lice (Pediculus humanus humanus). Here is the method:
To evaluate the potential effects of protease inhibitors on lice egg hatching it was necessary to develop a reliable in vitro bioassay. Male and female clothing lice were fed on a rabbit as previously described. […] During this period the female lice laid their eggs and attached them to the woven cloth. All lice would then be removed and the eggs permitted to incubate for the following 5 days. […] The eggs would then progress through to their final stages of development and hatch. In untreated control eggs a reliable average percentage hatch of between 85-95 percent was obtained using the in vitro egg hatch assay. […] Lice eggs were laid onto cloth as described above. […] Protease inhibitor solutions were typically prepared as stock solutions and added fresh at the appropriate concentration. Specifically stock solutions were prepared as follows: 1,10-phenanthroline (200 mM in methanol) and bestatin (5 mg/ml in methanol). In addition, the equivalent levels of the solvent were added to the non-inhibitor containing controls eggs to test for any buffer alone effects. Percentage hatch inhibition was calculated as the percentage reduction in egg hatch compared to the untreated control.

Setting [6] is: Table 10, 1 mM, eggs laid on cloth.
The mark [7] stands for this setting: Table 10, 10 mM, eggs laid on cloth.
The mark [8] stands for this setting: Table 11, 1 mM, eggs laid on parafilm.
Where [9] appears, read: Table 12, 0.01 mM, cloth, dipped approximately 2 seconds.
The mark [10] stands for this setting: Table 12, 0.1 mM, cloth, dipped approximately 2 seconds.
Setting [11] is: Table 12, 1 mM, cloth, dipped approximately 2 seconds.
[12] abbreviates: Table 12, 10 mM, cloth, dipped approximately 2 seconds.
[13] abbreviates: Pediculus humanus, 5 mM, read-out: % Inhibition of lice egg hatching (maximum over the time-course).
The mark [14] stands for this setting: Pediculus humanus, 5 mg/ml, read-out: % Inhibition of lice egg hatching (maximum over the time-course).

Entries after “also recorded” stand apart in the source; their conditions may differ. Where a name gives a salt, the structure may show the parent alone. Read-outs that look alike come from different tables or passages of the source. Square brackets hold non-standard residues; d marks the D form. Peptide text beside a SMILES is read from it. * marks the point of attachment. Sta = CC(C)C[C@H](N)[C@@H](O)CC(=O)O; Isovaleryl = CC(C)CC(=O)*; Cbz = O=C(OCc1ccccc1)*; NHOH = ON*

In the case of `c1ccc(-c2ccccn2)nc1` [2,2′-dipyridyl], the “% Inhibition of lice egg hatching (maximum over the time-course)” value (from here on “% Inhibition of lice egg hatching”) with lice eggs [1] (10 mM) stood at 100%. Also, the “Ph (number of eggs partly hatched)” value in the experiment with lice eggs [1] (Table 5, […], per replicate) is recorded as 0. The lice egg hatching entry in the experiment on lice eggs [1] (in vivo) was “completely inhibited”.
`c1ccc(-c2ccc3ccccc3n2)nc1` [2-(2-pyridinyl)quinoline]: in experiment [2] (Table 16, 10 mM, relative to control (100% ETOH)), the % Inhibition (usually the relative decrease from the control value, in per cent) is reported as “able to inhibit egg hatching”.
Take `Cc1ccnc(-c2cc(C)ccn2)c1` [4,4′-dimethyl-2,2′-dipyridyl]: the Number hatched stood at 23 in experiment [3] (1 mM); 8 in experiment [3] (10 mM); 0 in experiment [2] (setting [6]); 0 in experiment [2] (setting [7]); 10 in experiment [2] (setting [8]); 0 in experiment [2] (Table 11, 10 mM, eggs laid on parafilm). For the same compound, the Number hatched in experiment [2] (setting [9]) came out at 29; in experiment [2] (setting [10]), 33; in experiment [2] (setting [11]), 0; in experiment [2] (setting [12]), 1. For the same compound, the Number unhatched in experiment [3] (1 mM) is listed as 29; in experiment [3] (10 mM) it was 43; in experiment [2] (setting [6]), 30; in experiment [2] (setting [7]) it was 36; in experiment [2] (setting [8]) it was 121; in experiment [2] (setting [9]), 1. The Number unhatched in experiment [2] (setting [10]) is 18; in experiment [2] (setting [11]) it was 63; in experiment [2] (setting [12]), 77. Besides, the “% Inhibition” value in experiment [2] (Table 10, 1 mM, eggs laid on cloth, relative to controls) was 100%; in experiment [2] (Table 10, 10 mM, eggs laid on cloth, relative to controls), 100%; in experiment [2] (Table 11, 1 mM, eggs laid on parafilm, relative to controls), 91%; in experiment [2] (Table 11, 10 mM, eggs laid on parafilm, relative to controls), 100%.
Consider `O=C(O)CNC(=O)C(CS)Cc1ccccc1` [D-L thiorophan, reference compound], for which the “% Inhibition of lice egg hatching” value with lice eggs [1] (1 mg/ml) came out at 20%.
In the case of `O=C(O)CN(CCN(CC(=O)O)CC(=O)O)CC(=O)O` [EDTA, reference compound], the “effect on egg hatching” value in the experiment with lice eggs [1] (100 mM) is recorded as “did not appear to have an effect”.
With `O=C(O)CN(CCOCCOCCN(CC(=O)O)CC(=O)O)CC(=O)O` [EGTA, reference compound], the “effect on egg hatching” value in the experiment on lice eggs [1] (10 mM) was “did not appear to have an effect”.
As to `CNC(=O)[C@H](Cc1c[nH]c2ccccc12)NC(=O)[C@@H](CC(=O)NO)CC(C)C` [GM 6001, reference compound], the “% Inhibition of lice egg hatching” value with lice eggs [1] (concentration not given) was determined as 0%.
On to `CC(C)C[C@H](NC(=O)[C@H]1O[C@@H]1C(=O)O)C(=O)NCCCCN=C(N)N` [Inhibitor E-64], for which the “protease activity of the ESW” value in experiment [4] (10 μM inhibitor) is on record as “No reduction in protease activity”.
Consider `CC(C)C[C@H](N)CS` [L-leucinthiol, reference compound], for which, in the experiment on lice eggs [1] (setting [13]), the inhibition (commonly the percentage by which the read-out fell short of the control) at 5000 µM amounted to 0%.
On to `CC(C)C[C@H](NC(=O)[C@@H]1CCCN1C(=O)OCc1ccccc1)C(=O)NCC(=O)NO` [N-CBZ-PRO-LEU-GLY hydroximate, reference compound] (Cbz-Pro-Leu-Gly-{NHOH}), for which the “% Inhibition of lice egg hatching” value in the experiment with lice eggs [1] (10 mM) was found to be 0%.
For `O=S(=O)(F)Cc1ccccc1` [PMSF], in experiment [4] (5 mM inhibitor), the “protease activity of the ESW” value is “No reduction in protease activity”.
Regarding `CCCCC[C@H](CC(=O)NO)C(=O)N[C@H](C(=O)N1CCC[C@H]1CO)C(C)C` [actinonin, reference compound], the inhibition at 5000 µM with lice eggs [1] (setting [13]) was determined as 0%.
As to `CC(C)C[C@@H](N)[C@H](O)C(=O)N[C@H](C(=O)N[C@H](C(=O)N[C@@H](CC(=O)O)C(=O)O)C(C)C)C(C)C` [amastatin, reference compound], in the experiment on lice eggs [1] (setting [13]), the inhibition at 5000 µM stood at 26%.
As to `CC(C)C[C@H](NC(=O)[C@@H](O)[C@H](N)Cc1ccccc1)C(=O)O` [bestatin, reference compound], the lice egg hatching entry with lice eggs [5] (5 mM, eggs treated 5 days post laying) is listed as “significantly inhibit lice egg hatching”. In addition, the “inhibition of egg hatching” value in the experiment with lice eggs [5] (added within 24 hours of hatching) is “variable inhibition”. Besides, the inhibition at 5000 µM with lice eggs [1] (setting [13]) is 58%; in the experiment on lice eggs [1] (Pediculus humanus, 144 h, 5 mM, treated 144 hr post egg laying, read-out: Percent inhibition of egg hatching), 53%.
As for `C[C@H](CS)C(=O)N1CCC[C@H]1C(=O)O` [captopril, 1-[(2S)-3-mercapto-2-methyl-1-oxopropyl]-L-proline, reference compound], the inhibition at 23000 µM in the experiment with lice eggs [1] (Pediculus humanus, 23 mM, read-out: % Inhibition of lice egg hatching (maximum over the time-course)) is 27%.
Consider `[H]/N=C(\N/C(=N/[H])NCCCCCCNC(=N)NC(=N)Nc1ccc(Cl)cc1)Nc1ccc(Cl)cc1` [chlorhexidine dihydrochloride, reference compound], for which the “% Inhibition of lice egg hatching” value in the experiment on lice eggs [1] (concentration not given) is recorded as 0%.
As to `C[C@H]1c2cccc(O)c2C(=O)C2=C(O)[C@]3(O)C(=O)C(C(N)=O)=C(O)[C@@H](N(C)C)[C@@H]3[C@@H](O)[C@@H]21` [doxycycline, reference compound], the “% Inhibition of lice egg hatching” value in the experiment on lice eggs [1] (5 mg/ml) is 69%. In the experiment on lice eggs [1] (setting [14]), the inhibition at 5000 µg/mL was determined as 65%.
For the compound `CO[C@@H]1[C@H](OC(=O)/C=C/C=C/C=C/C=C/C(=O)O)CC[C@]2(CO2)[C@H]1[C@@]1(C)O[C@@H]1CC=C(C)C` [fumagillin, reference compound], in the experiment on lice eggs [1] (setting [13]), the inhibition at 5000 µM was 0%.
As for `CC(C)C[C@H](N)[C@](O)(Cc1cnc[nH]1)C(=O)O` [leuhistin, reference compound], the “% Inhibition of lice egg hatching” value with lice eggs [1] (5 mM) was determined as 0%.
Regarding `CN(C)c1ccc(O)c2c1C[C@H]1C[C@H]3[C@H](N(C)C)C(O)=C(C(N)=O)C(=O)[C@@]3(O)C(O)=C1C2=O` [minocycline, reference compound], in the experiment on lice eggs [1] (setting [14]), the inhibition at 5000 µg/mL is 55%.
As for `CC(C)C[C@H](NC(=O)[C@@H](O)[C@H](N)Cc1ccc([N+](=O)[O-])cc1)C(=O)O` [nitrobestatin, reference compound], the “% Inhibition of lice egg hatching” value with lice eggs [1] (1 mg/ml) is recorded as 0%.
Turning to `CC(C)CC(=O)N[C@H](C(=O)N[C@H](C(=O)N[C@@H](CC(C)C)[C@@H](O)CC(=O)N[C@@H](C)C(=O)N[C@@H](CC(C)C)[C@@H](O)CC(=O)O)C(C)C)C(C)C` [pepstatin] (Isovaleryl-VV[Sta]A[Sta]-OH), the “protease activity of the ESW” value in experiment [4] (5 μM inhibitor) is “did not show any reduction in protease activity; also recorded: No reduction in protease activity”.
For the compound `CC(C)C[C@H](NP(=O)(O)O[C@@H]1O[C@@H](C)[C@H](O)[C@@H](O)[C@H]1O)C(=O)N[C@@H](Cc1c[nH]c2ccccc12)C(=O)O` [phosphoramidon, N-(alpha-rhamnopyranosyloxy-hydroxyphosphinyl)-L-leucyl-L-tryptophan, reference compound], the inhibition at 5000 µM with lice eggs [1] (setting [13]) was 41%.
Take `CN(C)[C@@H]1C(O)=C(C(N)=O)C(=O)[C@@]2(O)C(O)=C3C(=O)c4c(O)cccc4[C@@](C)(O)[C@H]3C[C@@H]12` [tetracycline, reference compound]: in the experiment on lice eggs [1] (setting [14]), the inhibition at 5000 µg/mL stood at 89%.
